# Assay results reported in patent publication US12371454B2, “Cyclic peptide compound having Kras inhibitory action” (priority 2019, dated 2025).
# Positions of bridges follow the written chain, without caps; N, C: chain ends. Non-standard residues stand in square brackets, D forms with d. Residues, ends and D or L forms follow the SMILES beside them. *: point of attachment. hPhe(3-Cl-4-CF3) = N[C@@H](CCc1ccc(C(F)(F)F)c(Cl)c1)C(=O)O; NMePhe(4-Me) = CN[C@@H](Cc1ccc(C)cc1)C(=O)O; NMeGly(cPent) = CN[C@H](C(=O)O)C1CCCC1; Ala(cPent) = N[C@@H](CC1CCCC1)C(=O)O; Gly(cPent) = N[C@H](C(=O)O)C1CCCC1; NMeCha = CN[C@@H](CC1CCCCC1)C(=O)O; NMehLeu = CN[C@@H](CCC(C)C)C(=O)O; NMeAhp(2) = CCCCC[C@H](NC)C(=O)O; NMeCba = CN[C@@H](CC1CCC1)C(=O)O; NMeChg = CN[C@H](C(=O)O)C1CCCCC1; NMeD = CN[C@@H](CC(=O)O)C(=O)O; NMeL = CN[C@@H](CC(C)C)C(=O)O; NMeNle = CCCC[C@H](NC)C(=O)O; NMeV = CN[C@H](C(=O)O)C(C)C; Morpholide = C1CN(*)CCO1; NMeA = CN[C@@H](C)C(=O)O; Piperidide = C1CCN(*)CC1; Pyrrolidide = C1CCN(*)C1; Ac5c = NC1(C(=O)O)CCCC1; Aze = O=C(O)[C@@H]1CCN1; Ac4c = NC1(C(=O)O)CCC1; Ac3c = NC1(C(=O)O)CC1; Sar = CNCC(=O)O
# How the values were obtained:
# [1] = target: T1, Kras and SOS1 (biotin-tagged human Kras loaded with GDP, His-tagged human SOS1) (Homo sapiens, UniProt P01116, G12D); test: Protein-protein interaction inhibition between Kras and SOS1 (KrasGl2D-SOS PPI) using AlphaScreen; assay type: binding; details: AlphaScreen; biotin-tagged human Kras loaded with GDP, His-tagged human SOS1; read-out: KRAS G12D-SOS PPI IC50
# T1 construct: made in house; host or cells: E. coli (stated for Kras only)
# Method in brief: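 Kras was produced in E. coli, purified, then loaded with GDP. It was paired via streptavidin acceptor beads with His-SOS1 held on nickel donor beads, and proximity signal at 520-620 nm was read after 680 nm illumination.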
# [2] = test system: Human pancreatic cancer cell line AsPC-1; test: Measurement of AsPC-1 cell growth inhibition (AsPC-1 CGI); assay type: cell-based; details: 96 h
# Method in brief: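 AsPC-1 cells in 15% FBS RPMI-1640 were exposed to test compound for 96 hours at 37° C, with CellTiter-Glo as endpoint.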
# T1 sequence (P01116 1-188 isoform P01116-2 G12D): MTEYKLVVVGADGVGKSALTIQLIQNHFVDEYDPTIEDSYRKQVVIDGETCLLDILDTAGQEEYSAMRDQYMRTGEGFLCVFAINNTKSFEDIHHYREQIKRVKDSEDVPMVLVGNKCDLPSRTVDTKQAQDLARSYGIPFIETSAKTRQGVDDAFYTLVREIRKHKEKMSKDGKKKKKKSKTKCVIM
SMILES,IC50 [1],IC50 [2]
CC[C@H](C)[C@@H]1NC(=O)[C@H](CC(C)C)N(C)C(=O)C[C@@H](C(=O)N(C)C)N(C)C(=O)[C@H](C(C)C)N(C)C(=O)C2(CCCC2)NC(=O)[C@@H]2CCCN2C(=O)[C@H](CCc2ccc(C(F)(F)F)c(Cl)c2)NC(=O)CN(C)C(=O)[C@H](CC2CCCCC2)N(C)C(=O)CN(C)C(=O)CN(C)C1=O [Compound 1812] ([NMeL]I[Sar][Sar][NMeCha][Sar][hPhe(3-Cl-4-CF3)]P[Ac5c][NMeV][NMeD]-NMe2; lactam N-11),0.00056 µM,0.05 to 0.1 µM
CC[C@H](C)[C@@H]1NC(=O)[C@H](CC(C)C)N(C)C(=O)C[C@@H](C(=O)N2CCCCC2)N(C)C(=O)[C@H](C2CCCCC2)N(C)C(=O)C2(CCCC2)NC(=O)[C@@H]2CCCN2C(=O)[C@H](CCc2ccc(C(F)(F)F)c(Cl)c2)NC(=O)CN(C)C(=O)[C@H](CC2CCC2)N(C)C(=O)CN(C)C(=O)CN(C)C1=O [Compound 1817] ([NMeL]I[Sar][Sar][NMeCba][Sar][hPhe(3-Cl-4-CF3)]P[Ac5c][NMeChg][NMeD]-Piperidide; lactam N-11),0.0014 µM,0.1 to 0.5 µM
CC[C@H](C)[C@@H]1NC(=O)[C@H](CC(C)C)N(C)C(=O)C[C@@H](C(=O)N2CCCCC2)N(C)C(=O)[C@H](C2CCCCC2)N(C)C(=O)C2(CCC2)NC(=O)[C@@H]2CCCN2C(=O)[C@H](CCc2ccc(C(F)(F)F)c(Cl)c2)NC(=O)CN(C)C(=O)[C@H](CC2CCCCC2)N(C)C(=O)CN(C)C(=O)CN(C)C1=O [Compound 1821] ([NMeL]I[Sar][Sar][NMeCha][Sar][hPhe(3-Cl-4-CF3)]P[Ac4c][NMeChg][NMeD]-Piperidide; lactam N-11),0.00099 µM,0.02 to 0.05 µM
CC(C)C[C@H]1C(=O)N[C@@H](C2CCCC2)C(=O)N(C)CC(=O)N(C)CC(=O)N(C)[C@@H](CC2CCCCC2)C(=O)N(C)CC(=O)N[C@@H](CCc2ccc(C(F)(F)F)c(Cl)c2)C(=O)N2CCC[C@H]2C(=O)NC2(CCCC2)C(=O)N(C)[C@@H](C2CCCCC2)C(=O)N(C)[C@H](C(=O)N2CCCCC2)CC(=O)N1C [Compound 1824] ([NMeL][Gly(cPent)][Sar][Sar][NMeCha][Sar][hPhe(3-Cl-4-CF3)]P[Ac5c][NMeChg][NMeD]-Piperidide; lactam N-11),0.00075 µM,0.05 to 0.1 µM
CC[C@H](C)[C@@H]1NC(=O)[C@H](CC(C)C)N(C)C(=O)C[C@@H](C(=O)N2CCCCC2)N(C)C(=O)[C@H](C(C)C)N(C)C(=O)C2(CCCC2)NC(=O)[C@@H]2CCCN2C(=O)[C@H](CCc2ccc(C(F)(F)F)c(Cl)c2)NC(=O)CN(C)C(=O)[C@H](C2CCCC2)N(C)C(=O)[C@@H]2CCN2C(=O)[C@H](C)N(C)C1=O [Compound 1825] ([NMeL]I[NMeA][Aze][NMeGly(cPent)][Sar][hPhe(3-Cl-4-CF3)]P[Ac5c][NMeV][NMeD]-Piperidide; lactam N-11),0.0034 µM,0.1 to 0.5 µM
CC[C@H](C)[C@@H]1NC(=O)[C@H](CC(C)C)N(C)C(=O)C[C@@H](C(=O)N2CCCCC2)N(C)C(=O)[C@H](C2CCCCC2)N(C)C(=O)C2(CCCC2)NC(=O)[C@@H]2CCCN2C(=O)[C@H](CCc2ccc(C(F)(F)F)c(Cl)c2)NC(=O)CN(C)C(=O)[C@H](C(C)C)N(C)C(=O)CN(C)C(=O)CN(C)C1=O [Compound 1829] ([NMeL]I[Sar][Sar][NMeV][Sar][hPhe(3-Cl-4-CF3)]P[Ac5c][NMeChg][NMeD]-Piperidide; lactam N-11),0.0015 µM,0.1 to 0.5 µM
CC[C@H](C)[C@@H]1NC(=O)[C@H](CC(C)C)N(C)C(=O)C[C@@H](C(=O)N2CCCCC2)N(C)C(=O)[C@H](C2CCCCC2)N(C)C(=O)C2(CCCC2)NC(=O)[C@@H]2CCCN2C(=O)[C@H](CCc2ccc(C(F)(F)F)c(Cl)c2)NC(=O)CN(C)C(=O)[C@H](CCC(C)C)N(C)C(=O)CN(C)C(=O)CN(C)C1=O [Compound 1830] ([NMeL]I[Sar][Sar][NMehLeu][Sar][hPhe(3-Cl-4-CF3)]P[Ac5c][NMeChg][NMeD]-Piperidide; lactam N-11),0.0016 µM,0.1 to 0.5 µM
CCCC[C@H]1C(=O)N(C)CC(=O)N[C@@H](CCc2ccc(C(F)(F)F)c(Cl)c2)C(=O)N2CCC[C@H]2C(=O)NC2(CCCC2)C(=O)N(C)[C@@H](C2CCCCC2)C(=O)N(C)[C@H](C(=O)N2CCCCC2)CC(=O)N(C)[C@@H](CC(C)C)C(=O)N[C@@H]([C@@H](C)CC)C(=O)N(C)CC(=O)N(C)CC(=O)N1C [Compound 1832] ([NMeL]I[Sar][Sar][NMeNle][Sar][hPhe(3-Cl-4-CF3)]P[Ac5c][NMeChg][NMeD]-Piperidide; lactam N-11),0.001 µM,0.1 to 0.5 µM
CC[C@H](C)[C@@H]1NC(=O)[C@H](C2CCCC2)N(C)C(=O)C[C@@H](C(=O)N2CCCCC2)N(C)C(=O)[C@H](C2CCCCC2)N(C)C(=O)C2(CCCC2)NC(=O)[C@@H]2CCCN2C(=O)[C@H](CCc2ccc(C(F)(F)F)c(Cl)c2)NC(=O)CN(C)C(=O)[C@H](CC2CCCCC2)N(C)C(=O)CN(C)C(=O)CN(C)C1=O [Compound 1835] ([NMeGly(cPent)]I[Sar][Sar][NMeCha][Sar][hPhe(3-Cl-4-CF3)]P[Ac5c][NMeChg][NMeD]-Piperidide; lactam N-11),0.0011 µM,0.05 to 0.1 µM
CC(C)C[C@H]1C(=O)N[C@@H](CC2CCCC2)C(=O)N(C)CC(=O)N(C)CC(=O)N(C)[C@@H](CC2CCCCC2)C(=O)N(C)CC(=O)N[C@@H](CCc2ccc(C(F)(F)F)c(Cl)c2)C(=O)N2CCC[C@H]2C(=O)NC2(CCCC2)C(=O)N(C)[C@@H](C2CCCCC2)C(=O)N(C)[C@H](C(=O)N2CCCCC2)CC(=O)N1C [Compound 1838] ([NMeL][Ala(cPent)][Sar][Sar][NMeCha][Sar][hPhe(3-Cl-4-CF3)]P[Ac5c][NMeChg][NMeD]-Piperidide; lactam N-11),0.0026 µM,0.1 to 0.5 µM
CC[C@H](C)[C@@H]1NC(=O)[C@H](CC(C)C)N(C)C(=O)C[C@@H](C(=O)N2CCCC2)N(C)C(=O)[C@H](C2CCCC2)N(C)C(=O)C2(CCCC2)NC(=O)[C@@H]2CCCN2C(=O)[C@H](CCc2ccc(C(F)(F)F)c(Cl)c2)NC(=O)CN(C)C(=O)[C@H](Cc2ccc(C)cc2)N(C)C(=O)[C@@H]2CCN2C(=O)[C@H](C)N(C)C1=O [Compound 1840] ([NMeL]I[NMeA][Aze][NMePhe(4-Me)][Sar][hPhe(3-Cl-4-CF3)]P[Ac5c][NMeGly(cPent)][NMeD]-Pyrrolidide; lactam N-11),0.0012 µM,0.02 to 0.05 µM
CC[C@H](C)[C@@H]1NC(=O)[C@H](CC(C)C)N(C)C(=O)C[C@@H](C(=O)N2CCCCC2)N(C)C(=O)[C@H](C2CCCCC2)N(C)C(=O)C2(CC2)NC(=O)[C@@H]2CCCN2C(=O)[C@H](CCc2ccc(C(F)(F)F)c(Cl)c2)NC(=O)CN(C)C(=O)[C@H](CC2CCCCC2)N(C)C(=O)CN(C)C(=O)CN(C)C1=O [Compound 1845] ([NMeL]I[Sar][Sar][NMeCha][Sar][hPhe(3-Cl-4-CF3)]P[Ac3c][NMeChg][NMeD]-Piperidide; lactam N-11),0.00084 µM,0.1 to 0.5 µM
CCCCC[C@H]1C(=O)N(C)CC(=O)N[C@@H](CCc2ccc(C(F)(F)F)c(Cl)c2)C(=O)N2CCC[C@H]2C(=O)NC2(CCCC2)C(=O)N(C)[C@@H](C2CCCCC2)C(=O)N(C)[C@H](C(=O)N2CCCCC2)CC(=O)N(C)[C@@H](CC(C)C)C(=O)N[C@@H]([C@@H](C)CC)C(=O)N(C)CC(=O)N(C)CC(=O)N1C [Compound 1846] ([NMeL]I[Sar][Sar][NMeAhp(2)][Sar][hPhe(3-Cl-4-CF3)]P[Ac5c][NMeChg][NMeD]-Piperidide; lactam N-11),0.0011 µM,0.1 to 0.5 µM
CC[C@H](C)[C@@H]1NC(=O)[C@H](C)N(C)C(=O)C[C@@H](C(=O)N2CCOCC2)N(C)C(=O)[C@H](C2CCCCC2)N(C)C(=O)C2(CCCC2)NC(=O)[C@@H]2CCCN2C(=O)[C@H](CCc2ccc(C(F)(F)F)c(Cl)c2)NC(=O)CN(C)C(=O)[C@H](CC2CCCCC2)N(C)C(=O)CN(C)C(=O)CN(C)C1=O [Compound 1847] ([NMeA]I[Sar][Sar][NMeCha][Sar][hPhe(3-Cl-4-CF3)]P[Ac5c][NMeChg][NMeD]-Morpholide; lactam N-11),0.00063 µM,0.1 to 0.5 µM
CC[C@H](C)[C@@H]1NC(=O)[C@H](CC(C)C)N(C)C(=O)C[C@@H](C(=O)N2CCCCC2)N(C)C(=O)[C@H](C2CCCC2)N(C)C(=O)C2(CCCC2)NC(=O)[C@@H]2CCCN2C(=O)[C@H](CCc2ccc(C(F)(F)F)c(Cl)c2)NC(=O)CN(C)C(=O)[C@H](Cc2ccc(C)cc2)N(C)C(=O)CN(C)C(=O)CN(C)C1=O [Compound 1850] ([NMeL]I[Sar][Sar][NMePhe(4-Me)][Sar][hPhe(3-Cl-4-CF3)]P[Ac5c][NMeGly(cPent)][NMeD]-Piperidide; lactam N-11),0.0006 µM,0.02 to 0.05 µM
CC[C@H](C)[C@@H]1NC(=O)[C@H](CC(C)C)N(C)C(=O)C[C@@H](C(=O)N2CCCCC2)N(C)C(=O)[C@H](CC2CCC2)N(C)C(=O)C2(CCCC2)NC(=O)[C@@H]2CCCN2C(=O)[C@H](CCc2ccc(C(F)(F)F)c(Cl)c2)NC(=O)CN(C)C(=O)[C@H](CC2CCCCC2)N(C)C(=O)[C@@H]2CCN2C(=O)[C@H](C)N(C)C1=O [Compound 1860] ([NMeL]I[NMeA][Aze][NMeCha][Sar][hPhe(3-Cl-4-CF3)]P[Ac5c][NMeCba][NMeD]-Piperidide; lactam N-11),0.011 µM,0.1 to 0.5 µM
CC[C@H](C)[C@@H]1NC(=O)[C@H](CC(C)C)N(C)C(=O)C[C@@H](C(=O)N(C)C)N(C)C(=O)[C@H](C(C)C)N(C)C(=O)C2(CCCC2)NC(=O)[C@@H]2CCCN2C(=O)[C@H](CCc2ccc(C(F)(F)F)c(Cl)c2)NC(=O)CN(C)C(=O)[C@H](Cc2ccc(C)cc2)N(C)C(=O)CN(C)C(=O)CN(C)C1=O [Compound 1867] ([NMeL]I[Sar][Sar][NMePhe(4-Me)][Sar][hPhe(3-Cl-4-CF3)]P[Ac5c][NMeV][NMeD]-NMe2; lactam N-11),0.00073 µM,0.1 to 0.5 µM
